Values quoted from earlier work as cited in patent publication US10545073B2, “Method and instrument for extracting a component from a sample” (priority 2016, dated 2020).

Point of comparison: `Fc1ccc([C@@H]2CCNC[C@H]2COc2ccc3c(c2)OCO3)cc1` [Paroxetine], “log P” value 3.89. Against it:
- CNC(=C[N+](=O)[O-])NCCSCc1ccc(CN(C)C)o1 [Ranitidine] — lower, 1.23
- CC(C)(C)NCC(O)c1ccc(O)c(CO)c1 (stereo not shown) [Salbutamol] — lower, 0.01
- CN[C@H]1CC[C@@H](c2ccc(Cl)c(Cl)c2)c2ccccc21 [Sertraline] — higher, 4.81
